Test [1] concerns the target T1, E. coli RodA-PBP2 fusion (PBP2 TP domain) (Escherichia coli, UniProt P0AD65).
T1 construct: gene mrdA; with Peptidoglycan glycosyltransferase MrdB
T1 sequence (P0AD65 1-633): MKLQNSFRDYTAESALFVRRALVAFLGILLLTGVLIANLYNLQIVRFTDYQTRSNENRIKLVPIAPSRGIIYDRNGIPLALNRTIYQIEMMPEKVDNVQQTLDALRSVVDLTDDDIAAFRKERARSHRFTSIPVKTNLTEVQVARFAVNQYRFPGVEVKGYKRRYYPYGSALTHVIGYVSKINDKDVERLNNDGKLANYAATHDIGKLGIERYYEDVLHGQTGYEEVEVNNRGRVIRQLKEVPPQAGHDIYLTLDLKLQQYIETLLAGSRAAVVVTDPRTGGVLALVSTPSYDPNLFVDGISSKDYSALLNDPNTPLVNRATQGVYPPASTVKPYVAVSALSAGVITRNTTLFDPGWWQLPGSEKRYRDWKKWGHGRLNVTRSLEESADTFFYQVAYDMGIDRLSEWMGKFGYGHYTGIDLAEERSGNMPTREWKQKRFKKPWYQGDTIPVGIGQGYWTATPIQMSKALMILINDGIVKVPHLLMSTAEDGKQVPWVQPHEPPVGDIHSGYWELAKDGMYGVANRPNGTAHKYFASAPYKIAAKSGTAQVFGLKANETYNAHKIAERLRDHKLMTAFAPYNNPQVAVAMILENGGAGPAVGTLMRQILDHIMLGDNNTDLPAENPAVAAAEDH
T1 sequence (P0ABG7 1-370 partner): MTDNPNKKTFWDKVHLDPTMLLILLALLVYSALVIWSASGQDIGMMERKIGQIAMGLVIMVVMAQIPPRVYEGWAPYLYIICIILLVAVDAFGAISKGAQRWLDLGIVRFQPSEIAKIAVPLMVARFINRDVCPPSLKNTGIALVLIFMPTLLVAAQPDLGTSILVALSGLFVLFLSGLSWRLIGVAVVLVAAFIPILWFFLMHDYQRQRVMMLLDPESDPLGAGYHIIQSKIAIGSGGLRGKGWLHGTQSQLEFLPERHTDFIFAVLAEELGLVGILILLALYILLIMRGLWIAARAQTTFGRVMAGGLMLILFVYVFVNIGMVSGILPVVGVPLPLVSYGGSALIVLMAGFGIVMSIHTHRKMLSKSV
The test is described as follows: fluorescent bocillin labelling, SDS-PAGE. The format is binding. Conditions: covalent; TP active site of PBP2; labelled compound; 15 min.

Another test concerns the target T2, E. coli PBP2 (Escherichia coli str. K-12 substr. …, UniProt P0AD65 1-633).
T2 construct: K-12 substr; MG1655, UniProt P0AD65; residues 10-343, 401-430, 457-540 and 569-612 built in the map; PBP2 Gln99 is residue 476 in the fusion; the poly-histidine tag of the fusion is written on m1; also called transpeptidase (TP); source: E. coli BL21(DE3) pLysS, purified (Ni-NTA, SEC), reconstituted in POPG / MSP1E3D1 nanodiscs
T2 sequence (looked up): T1 sequence (P0AD65 1-633)
The test is described as follows: cryo-EM structure; single-particle cryo-EM of the RodA-PBP2 fusion (one chain, TSGSGSGS linker) in POPG / MSP1E3D1 nanodiscs; 20 mM HEPES pH 7, 150 mM NaCl, 1 mM TCEP; 0.66 mg/ml (5.9 uM). Conditions: both partners purified.

As for `Cc1cc(C)n2c1C=C1C=CC(CCC(=O)Nc3ccc(OCC(=O)N[C@@H]4C(=O)N5[C@@H]4SC(C)(C)[C@@H]5C(=O)O)cc3)=[N+]1[B-]2(F)F` [bocillin], the “fluorescent bocillin labelling, SDS-PAGE” value in test [1] is given as “The TP domain binds (and is covalently modified by) a fluorescent penicillin mimic bocillin”.

B1: E. coli RodA (enzyme, UniProt P0ABG7 1-370, looked up)
chain: T1 sequence (P0ABG7 1-370 partner)
notes: RodA, Escherichia coli str; K-12 substr; MG1655; UniProt ID printed as '0ABG7'; residues 9-93 and 109-364 built in the map; They are written as two molecules for the pair row; No TEV cleavage is described; also called SEDS glycosyltransferase (GT); RodA part of the RodA-PBP2 fusion; source: E. coli BL21(DE3) pLysS, purified (Ni-NTA, SEC), reconstituted in POPG / MSP1E3D1 nanodiscs
For B1, the binding result in the test with E. coli PBP2 is on record as “binds”.

Values taken from article PMC10449877, “Structural basis of peptidoglycan synthesis by E. coli RodA-PBP2 complex” (Nature Communications, 2023).
